Test results from patent US20170058349A1, “METHODS FOR MANAGING CARE OF PATIENTS PREDISPOSED TO PROGRESSIVE MITRAL VALVE DISEASES” (The Children's Hospital of Philadelphia, priority 2014, published 2017).

Experiments:
human MVICs = test: MVIC activation in vitro (SMA expression after 5HT stimulation); type: cell-based; conditions: for SMA expression on 5HT stimulation: 5HT 10 nM; for VIC activation associated with 5HTR activation: human MVICs in vitro, antagonists of 5HTR2A, 2B and SERT
Protocol: MVICs isolated from healthy controls and patients with LL, LS, SS gene polymorphisms were treated with […] 5HT for 6 days in the presence or absence of a combination of 5HT2A antagonist Ketanserin, 5HT2B antagonist SDZ, and SERT antagonist Fluoxetine. RNA was isolated and tested for SMA expression as a marker of MVIC activation.
MVICs were isolated form patients with LL, LS, or SS genotype and controls (N=5/group) and exposed to 5HT stimulation (10 nM) to measure MVICs activation by alpha smooth muscle actin (SMA) as previously described by Rachana et al. (Journal of cellular physiology 227(6): 2595-604, November 2011. PMCID: PMC3288540) and Poggio et al. (Cardiovascular research 98(3): 402-10, June 2013. PMCID: PMC3656614). A combination of 5HT2A, 2B and SERT antagonists was used to inhibit 5HT stimulation in the three different genotypes (LL, LS, SS) with 10 μM ketanserin, 1 μM SDZ SER-082, and 1 μM Fluoxitine. (FIG. 4). RNA extract was collected to detect SMA expression.

C57BL/6J mice = test: Chronic angiotensin II infusion, remodeling of the mitral valve tissue in mice; type: in vivo; conditions: 28 days chronic infusion; for ECM remodeling of MV leaflets / 5HTR2A, 5HTR2B and SERT expression in MV leaflets: AngII vs. saline; for ECM remodeling of MV leaflets: histology; for 5HTR2A, 5HTR2B and SERT expression in MV leaflets: immunohistochemistry
Excerpt: (A) Representative H&E staining of cross section of mice hearts harvested 28 days after saline or AngII chronic infusion. (B) Modified Movat Pentachrome staining of MV leaflets harvested 28 days after saline or AngII chronic infusion (Magnification 10× and 43×). (C) and (D) Immunohistochemistry staining of murine MV leaflets using anti-5HTR2A and anti-5HTR2B antibodies, respectively.
We have recently reported that reactive oxygen species (ROS) accumulation is leading aortic VICs activation ex vivo and in vitro with results showing that adenoviral delivery of antioxidant enzymes ameliorates aortic VICs activation. We therefore used our murine model based on chronic AngII infusion to reproduce ROS accumulation in the cardiac tissue (Branchetti et al., Cardiovasc Res. 2013; 100(2):316-324) to test whether we could provoke MV remodeling.

## NCCc1c[nH]c2ccc(O)cc12 [5HT, serotonin]
Human MVICs; MVICs from patients with LL genotype
  SMA expression on 5HT stimulation: significant upregulation of SMA
Human MVICs; MVICs from patients with SS and LS genotype
  SMA expression on 5HT stimulation: not responsive

## CNCCC(Oc1ccc(C(F)(F)F)cc1)c1ccccc1 (stereo not shown) [Fluoxetine]
Human MVICs
  VIC activation associated with 5HTR activation: partially abrogate this effect

## O=C(c1ccc(F)cc1)C1CCN(CCn2c(=O)[nH]c3ccccc3c2=O)CC1 [Ketanserin]
Human MVICs
  VIC activation associated with 5HTR activation: partially abrogate this effect

## CN1CC[C@@H]2CN3CCc4cccc(c43)[C@@H]2C1 [SDZ, SDZ SER-082]
Human MVICs
  VIC activation associated with 5HTR activation: partially abrogate this effect

## Angiotensin II (DRVYIHPF; Angiotensin-2; UniProt P11859 25-32, looked up) [AngII, chronically infused to induce ROS accumulation and MV remodeling in mice]
C57BL/6J mice; AngII treated vs. saline infused mice, p<0.01
  mitral valve cusp thickness: increased
C57BL/6J mice
  ECM remodeling of MV leaflets: significant rearrangement of the ECM
  5HTR2A, 5HTR2B and SERT expression in MV leaflets: increased 5HTR2A and 2B and SERT
C57BL/6J mice; listed as Angiotensin II
  ECM remodeling of MV leaflets: ECM remodeling
  5HTR2A, 5HTR2B and SERT expression in MV leaflets: increased 5HTR-2B/SERT expressions
